Results reported in patent EP2687509A2, “Dicarboxyimides derivatives for use in the treatment of cancer” (Warszawski Uniwersytet Medyczny, priority 2012, dated 2014).
pIC50: −log10 of the molar value. Read-outs that look alike come from different tables or passages of the source.

Assays:
caspase-6 = details: MOLT-4 cells; 5µM; after 24 hours of incubation; cited from earlier work
[1] = tested on: peripheral blood lymphocytes; details: normal cells (peripheral blood lymphocytes); cited from earlier work
caspase-3 = details: MOLT-4 cells; 5µM; after 12 hours of incubation; cited from earlier work
[2] = tested on: tumor cell lines (leukemia, breast cancer, neuroblastoma, colorectal cancer, liver, prostate, lung); details: 13 tested tumor cell lines; cited from earlier work
HeLa cells = assay: MTT cytotoxicity assay, HeLa cells; type: cell-based; details: Homo sapiens, 48 h incubation, * = compound precipitated at 1 mM from cell cultures
Description: (§1) A series of dicarboximides derivatives (table 1) was tested for cytotoxic properties against four cell lines. The tests were conducted by means of MTT assay where yellow tetrazole salt was processed by the dehydrogenases in mitochondria of live cells into violet formazan. The following cell lines were used:
- HeLa cells (uterine cervix cancer)
(§2) 1. HeLa, K562, HL60, HUVEC cells in an amount of 7 thousand cells / well (in 200 µL medium) were seeded in 96-well plates. Cells were incubated overnight in an incubator (37°C, 5% CO2)
(§3) 2. Test compounds were dissolved in DMSO and added in an amount of 2µL to the surface of the cells to give the following final concentrations in the cell culture (1 mM, 10 µm, 100 nM, 1 nM). As a control, cells exposed to 1% DMSO were used.
(§4) 3. Cytotoxicity of the test compounds was evaluated by MTT test. After 48-hour incubation of HeLa, K562, HL60 or HUVEC cells with the test compounds, MTT (5mg/mL) was added in an amount of 25µL/well. MTT, a yellow tetrazolium salt was reduced to purple formazan by mitochondrial dehydrogenases of living cells. The amount of formazan could be determined spectrophotometrically and was proportional to the number of live cells. Cells were incubated with MTT for 2 hours in an incubator (37°C, 5% CO2). Next, lysis buffer containing SDS and DMF was added (95µL/well) to each well and incubated overnight at 37°C, 5% CO2.
(§5) 4. The plates were analyzed by reading the absorbance at a wavelength of 570 nm and 650 nm using the plate-reader Fluostar Omega. The measured absorbance at 570 nm is proportional to the number of living cells. IC50 values (concentration of compound causing 50% cell mortality) were read from the charts by interpolation to 50% cell survival.

K562 cells [3] = assay: MTT cytotoxicity assay, K562 cells; type: cell-based, human; details: 48 h incubation, * = compound precipitated at 1 mM from cell cultures
Description: as §1
- K562 cells (human chronic myelogenous leukaemia) and
as §2, §3, §4, §5

HUVEC cells = assay: MTT cytotoxicity assay, HUVEC cells; type: cell-based; details: Homo sapiens, 48 h incubation, * = compound precipitated at 1 mM from cell cultures
Description: as §1
- HUVEC cells (normal human endothelial cells).
as §2, §3, §4, §5

caspase 3 and 7 = assay: Apo-ONE Homogeneous Caspase-3/7 Assay in K562 cells; type: cell-based, human; details: for activity of caspase 3 and 7: 5 x IC50 (a5: 10 µM), 18 hours, compared with K562 and K562+DMSO, Fig. 1
Description: The observed cytotoxicity of compounds a3-7 was tested for its origin, i.e. induction of necrosis or apoptosis in the K562 cells of chronic myelogenous leukaemia.
K562 cells in RPMI 1640 medium containing 10% fetal calf serum and antibiotics were seeded on 96-well plate in an amount of 20x10^3 cells / well. Cells were cultured for 24 hours in an incubator (5% CO2, 37°C).
Compounds a3-a7 were dissolved in DMSO and added to the cell medium; final concentration in the cell culture was 5 x IC50. Cells cultured in the presence of 1% DMSO served as a negative control. Cells grown in the presence of 1 µM staurosporin (a strong inducer of apoptosis) served as a positive control. […]
The activity of caspase 3 and 7 was determined by means of Apo-ONE® Homogeneous Caspase-3/7 Assay (Promega, Madison, WI, USA), in compliance with manufacturer's guidelines. Cells were lysed and incubated with a profluorescent substrate for caspases for 1.5 hours at room temperature. Due to proteolytic activity of caspases, the profluorescent substrate was converted into a fluorescent product the amount of which could be determined by measurement of fluorescence intensity.
The fluorescence intensity in each well was measured using a plate reader Fluostar Omega (BMG-Labtech, Germany) at an excitation wavelength of 485 nm and emission 520 nm. The intensity of fluorescence is proportional to the activity of caspase 3 and 7 in the sample.

HL60 cells = assay: MTT cytotoxicity assay, HL60 cells; type: cell-based; details: Homo sapiens, HL-60, 48 h, 48 h incubation
Description: as §1
- HL60 cells (human acute myelogenous leukaemia)
as §2, §3, §4, §5

K562 cells [4] = details: against K562 cells; for comparison; cited from earlier work
[5] = * = compound precipitated at 1 mM from cell cultures

SMILES | pIC50 (HeLa cells) | pIC50 (K562 cells [3]; Homo sapiens, K562, 48 h) | pIC50 (HUVEC cells) | further results
O=C1c2cccc3c([N+](=O)[O-])ccc(c23)C(=O)N1CCCO [6-nitro-2-(3-hydroxypropyl)-1H-benz[de]izoquinolino-1,3-dione] |  |  |  | caspase-6 activity (caspase-6): significant increase; pIC50 [1]: 3.56; caspase-3 activity (caspase-3): significant increase; tested tumor cell lines to which the compound was toxic [2]: 8 of 13
CN(C)CCN1C(=O)C2C(C1=O)C1(c3ccccc3)CC2(c2ccccc2)C(c2ccccc2)=C1c1ccccc1 (stereo not drawn) [a1] | 6.00 | 6.00 | < 3.00 | 
CN(C)CCCN1C(=O)C2C(C1=O)C1(c3ccccc3)CC2(c2ccccc2)C(c2ccccc2)=C1c1ccccc1 (stereo not drawn) [a2] | 6.00 | 6.00 | 5.40 | 
CCC12C(=O)C(CC)(C(c3ccccc3)=C1c1ccccc1)C1C(=O)N(CCN(C)C)C(=O)C12 (stereo not drawn) [a3] | < 3.00 |  | < 3.00 | pIC50 (K562 cells [3]): 5.00; activity of caspase 3 and 7 (caspase 3 and 7): do not increase; pIC50 (HL60 cells): 5.00 to 6.00; pIC50 (HL60 cells; [5]): < 3.00
CCN(CC)CCN1C(=O)C2C(C1=O)C1(CC)C(=O)C2(CC)C(c2ccccc2)=C1c1ccccc1 (stereo not drawn) [a4] | < 3.00 |  | < 3.00 | pIC50 (K562 cells [3]): 5.35; activity of caspase 3 and 7 (caspase 3 and 7): do not increase; pIC50 (HL60 cells): 5.00 to 6.00; pIC50 (HL60 cells; [5]): < 3.00
CCC12C(=O)C(CC)(C(c3ccccc3)=C1c1ccccc1)C1C(=O)N(CCN3CCCCC3)C(=O)C12 (stereo not drawn) [a5] | < 3.00 | 5.00 to 6.00 | < 3.00 | pIC50 (K562 cells [3]): 5.70; activity of caspase 3 and 7 (caspase 3 and 7): increased; activity of caspases 3 and 7 (caspase 3 and 7; a5 concentration = 10 µM, incubation time = 24h): increased; pIC50 (HL60 cells): 5.00 to 6.00; pIC50 (HL60 cells; [5]): < 3.00
CCC12C(=O)C(CC)(C(c3ccccc3)=C1c1ccccc1)C1C(=O)N(CCCN(C)C)C(=O)C12 (stereo not drawn) [a6] | < 3.00 |  | < 3.00 | pIC50 (K562 cells [3]): 5.10; activity of caspase 3 and 7 (caspase 3 and 7): do not increase; pIC50 (HL60 cells): 5.00 to 6.00; pIC50 (HL60 cells; [5]): < 3.00
CCC12C(=O)C(CC)(C(c3ccccc3)=C1c1ccccc1)C1C(=O)N(CC(O)CN(C)C)C(=O)C12 (stereo not drawn) [a8] | < 3.00 | < 3.00 |  | 
CC(C)NCC(O)CN1C(=O)C2C(C1=O)C1(c3ccccc3)CC2(c2ccccc2)C(c2ccccc2)=C1c1ccccc1 (stereo not drawn) [a9] | 6.00 | 6.00 | 6.00 | 
CN(C)CC(O)CN1C(=O)C2C(C1=O)C1(c3ccccc3)CC2(c2ccccc2)C(c2ccccc2)=C1c1ccccc1 (stereo not drawn) [a10] | 6.00 | 6.00 | 6.00 | 
CC(C)NCC(O)CN1C(=O)C2C(C1=O)C1(C)C(=O)C2(C)C(c2ccccc2)=C1c1ccccc1 (stereo not drawn) [a11] | 4.05 | 4.05 | 4.15 | 
CN(C)CC(O)CN1C(=O)C2C(C1=O)C1(C)C(=O)C2(C)C(c2ccccc2)=C1c1ccccc1 (stereo not drawn) [a12] | 4.00 | 4.05 | 4.00 | 
CC(C)NCC(O)CN1C(=O)C2C(C1=O)C1(c3ccccc3)C(=O)C2(c2ccccc2)C(c2ccccc2)=C1c1ccccc1 (stereo not drawn) [a13] | 6.00 | 6.05 | 5.70 | 
CN(C)CC(O)CN1C(=O)C2C(C1=O)C1(c3ccccc3)C(=O)C2(c2ccccc2)C(c2ccccc2)=C1c1ccccc1 (stereo not drawn) [a14] | 6.00 | 6.05 | 5.70 | 
COC12C=CC(CC1)C1C(=O)N(CCN(C)C)C(=O)C12 (stereo not drawn) [b1] | < 3.00 | < 3.00 |  | 
CCN(CC)CCN1C(=O)C2C3C=CC(OC)(CC3)C2C1=O (stereo not drawn) [b2] | < 3.00 | < 3.00 |  | 
COC12C=CC(CC1)C1C(=O)N(CCN3CCOCC3)C(=O)C12 (stereo not drawn) [b3] | < 3.00 | < 3.00 |  | 
COC12C=CC(CC1)C1C(=O)N(CCN3CCCCC3)C(=O)C12 (stereo not drawn) [b4] | < 3.00 | < 3.00 |  | 
COC12C=CC(CC1)C1C(=O)N(CCCN(C)C)C(=O)C12 (stereo not drawn) [b5] | < 3.00 | < 3.00 |  | 
CC(=O)OC12C=CC(OC(C)=O)(CC1)C1C(=O)N(CCN(C)C)C(=O)C12 (stereo not drawn) [b6] | < 3.00 | < 3.00 |  | 

SMILES | pIC50 (HeLa cells) | pIC50 (K562 cells [3]; Homo sapiens, K562, 48 h) | pIC50 (HUVEC cells) | further results
CCN(CC)CCN1C(=O)C2C(C1=O)C1(OC(C)=O)C=CC2(OC(C)=O)CC1 (stereo not drawn) [b7] | < 3.00 | < 3.00 |  | 
CC(=O)OC12C=CC(OC(C)=O)(CC1)C1C(=O)N(CCN3CCOCC3)C(=O)C12 (stereo not drawn) [b8] | < 3.00 | < 3.00 |  | 
CC(=O)OC12C=CC(OC(C)=O)(CC1)C1C(=O)N(CCN3CCCCC3)C(=O)C12 (stereo not drawn) [b9] | < 3.00 | < 3.00 |  | 
CC(=O)OC12C=CC(OC(C)=O)(CC1)C1C(=O)N(CCCN(C)C)C(=O)C12 (stereo not drawn) [b10] | < 3.00 | < 3.00 |  | 
CC1=CC2(C)CC(C)(C)C1C1C(=O)N(CCN(C)C)C(=O)C12 (stereo not drawn) [b11] | 4.05 | 4.00 | 3.52 | 
CCN(CC)CCN1C(=O)C2C3C(C)=CC(C)(CC3(C)C)C2C1=O (stereo not drawn) [b12] | 3.00 | < 3.00 |  | 
CC1=CC2(C)CC(C)(C)C1C1C(=O)N(CCN3CCOCC3)C(=O)C12 (stereo not drawn) [b13] | 4.05 | 4.05 | 4.00 | 
CC1=CC2(C)CC(C)(C)C1C1C(=O)N(CCN3CCCCC3)C(=O)C12 (stereo not drawn) [b14] | 4.00 | 4.00 |  | 
CC1=CC2(C)CC(C)(C)C1C1C(=O)N(CCCN(C)C)C(=O)C12 (stereo not drawn) [b15] | 4.00 | 4.05 | 3.15 | 
CC(C)COC12CCC(C(=O)C1)C1C(=O)N(CCN(C)C)C(=O)C12 (stereo not drawn) [c1] | < 3.00 | < 3.00 |  | 
CCN(CC)CCN1C(=O)C2C3CCC(OCC(C)C)(CC3=O)C2C1=O (stereo not drawn) [c2] | < 3.00 | < 3.00 |  | 
CC(C)COC12CCC(C(=O)C1)C1C(=O)N(CCN3CCOCC3)C(=O)C12 (stereo not drawn) [c3] | < 3.00 | < 3.00 |  | 
CC(C)COC12CCC(C(=O)C1)C1C(=O)N(CCN3CCCCC3)C(=O)C12 (stereo not drawn) [c4] | < 3.00 | < 3.00 |  | 
CC(C)COC12CCC(C(=O)C1)C1C(=O)N(CCCN(C)C)C(=O)C12 (stereo not drawn) [c5] | < 3.00 | < 3.00 |  | 
CCOC(=O)C1CC2C(=O)CC1(C)C1C(=O)N(CCN(C)C)C(=O)C21 (stereo not drawn) [c6] | 4.00 | < 3.00 | < 3.00 | 
CCOC(=O)C1CC2C(=O)CC1(C)C1C(=O)N(CCN(CC)CC)C(=O)C21 (stereo not drawn) [c7] | < 3.00 | < 3.00 |  | 
CCOC(=O)C1CC2C(=O)CC1(C)C1C(=O)N(CCN3CCOCC3)C(=O)C21 (stereo not drawn) [c8] | < 3.00 | < 3.00 |  | 
CCOC(=O)C1CC2C(=O)CC1(C)C1C(=O)N(CCN3CCCCC3)C(=O)C21 (stereo not drawn) [c9] | < 3.00 | < 3.00 |  | 
CCOC(=O)C1CC2C(=O)CC1(C)C1C(=O)N(CCCN(C)C)C(=O)C21 (stereo not drawn) [c10] | < 3.00 | < 3.00 |  | 
N.N.[Cl][Pt][Cl] [cis-platinum] |  |  |  | IC50 (K562 cells [4]): several to several dozens
